Tests used:
[1] = system: MDA-MB-134 (MM134) ILC cells; assay: Synergy measurement (Chou-Talalay combination index), CellTiter Glo viability, 96-well ULA plates, 6 days; settings: for CI: ED75 / CI: ED90: MM134, drug in combination with ICI 182,780, mean ± SEM, 3 independent experiments
Procedure: MDA-MB-134 ILC cells were plated into 96-well ULA plates and treated for 6 days with increasing doses of OSI-906 (FIG. 11A, 11B), BMS-754807 (FIGS. 11C, 11D), or BEZ235 (FIGS. 11E, 11F) in combination with increasing doses of ICI 182,780. The dose response curves (FIGS. 11A, 11C, 11E) and heat maps (FIGS. 11B, 11D, 11F) shown indicate inhibition of cell viability (CellTiter Glo). Representative experiment shown; n=3 each with 2 biological replicates per combination of doses.
Plates (2D and ultra-low attachment [ULA; Corning #3474]) were collected on day 6 and viability was measured using CellTiter Glo Viability assay (Promega #G7572). […] For synergy experiments, SUM44PE and MDA-MB-134 cells were plated in 96-well ULA plates (18,000 cells/well) in 100 μl of media/well. […] Synergy was calculated using the Median-Effect Principle and Combination Index-Isobologram Theorem (Chou-Talalay)^27. Combination index values for ED50, ED75, ED90 are shown as a mean±SEM from n=3 independent experiments.
Synergy was measured using the Median-Effect Principle and Combination-Index Isoblogram Theorem. […] Values are shown +/−SEM from 3 independent experiments each with n=2 biological replicates.

[2] = system: SUM44PE ILC cells; assay: as above; settings: for CI: ED75 / CI: ED90: SUM44PE, drug in combination with ICI 182,780, mean ± SEM, 3 independent experiments
Procedure: SUM44PE ILC cells were plated into 96-well ULA plates and treated for 6 days with increasing doses of OSI-906 (FIG. 10A, 10B), BMS-754807 (FIG. 10C, 10D), or BEZ235 (FIG. 10E, 10F) in combination with increasing doses of ICI 182,780. The dose response curves (FIG. 10A, 10C, 10E) and heat maps (FIG. 10B, 10D, 10F) shown indicate inhibition of cell viability (CellTiter Glo).
For synergy experiments, SUM44PE and MDA-MB-134 cells were plated in 96-well ULA plates (18,000 cells/well) in 100 μl of media/well. […] Synergy was calculated using the Median-Effect Principle and Combination Index-Isobologram Theorem (Chou-Talalay)^27. Combination index values for ED50, ED75, ED90 are shown as a mean±SEM from n=3 independent experiments.
Synergy was measured using the Median-Effect Principle and Combination-Index Isoblogram Theorem. […] Values are shown +/−SEM from 3 independent experiments each with n=2 biological replicates. CI values <1 indicate a synergistic drug interaction.

[3] = system: BCK4 xenograft tumor; assay: ILC xenograft tumor ex vivo explant culture, Ki67 staining; assay type: cell-based; settings: 1 μM, 72 hours, vehicle 25%, p=0.005
Procedure: (§1) FIGS. 12A, 12B, 12C, 12D, 12E and 12F show IGF1R inhibition reduces Ki67 staining in ILC tumor ex vivo culture. MM134 (FIGS. 12A, 12B, and 12C) and BCK4 (FIGS. 12D, 12E, and 12F) xenograft tumors were harvested from immunocompromised mice, minced into 1-2 mm^3 tumor chunks and then plated on gelatin sponges in 12-well plate containing 1.5 mL media. Media was treated with DMSO Vhc (FIGS. 12A and 12D) or 1 μM […] (FIGS. 12B and 12E) for 72 hours. Tumor pieces were harvested by FFPE and stained for Ki67 as a marker of proliferation. Staining was quantified for MM134 (FIG. 12C) and BCK4 (FIG. 12F) cells by counting all clearly defined nuclei in 20× images. Statistical difference was assessed using a Student's t-test (p<0.05; n=3-6). […] Nuclei were quantified by counting all clearly defined nuclei within each tissue section (n=3-6). […]

[4] = system: MM134 xenograft tumor; assay: as above; assay type: cell-based, human; settings: 1 μM, 72 hours, vehicle 47%, p=0.002
Procedure: as §1

[5] = system: MCF-7 cells; assay: Dose response growth assay (CellTiter Glo) in cells transfected with SCR or CDH1 siRNA; assay type: cell-based; settings: 6 days
From the text: The CellTiter Glo assay was used to assess cell viability (relative luminescence).
CellTiter Glo assay was used to assess cell viability (relative luminescence).

[6] = system: ZR75.1 cells; assay: as above; assay type: cell-based; settings: 6 days
From the text: FIGS. 5A and 5B show knockdown of E-cadherin increases sensitivity to IGF1R inhibition in breast cancer cells. ZR75.1 cells were reverse transfected with SCR or CDH1 siRNA and seeded into 96-well 2D (FIG. 5A) or ULA (FIG. 5B) plates and treated with OSI-906 for 6 days. CellTiter Glo assay was used to assess cell viability (relative luminescence).

difference in EC50 between siSCR and siCDH1 cells ([5]; 2D and ULA (FIG. 6))	Structure (SMILES)	CI: ED75 [1]	CI: ED90 [1]	CI: ED75 [2]	CI: ED90 [2]	Ki67 positive nuclei [3] [%]	Ki67 positive nuclei [4] [%]	viability of siCDH1 cells compared to siSCR cells in response to treatment ([5]; 2D growth condition)	viability of siCDH1 cells compared to siSCR cells in response to treatment ([5]; ULA growth condition)	CI: ED75 ([2]; listed as BMS)	CI: ED90 ([2]; listed as BMS)	minimum dose reduction index (DRI) for ICI ([1]; MM134 cells, all drug combinations (OSI, BMS, BEZ), at the EC50) [fold]	minimum dose reduction index (DRI) for ICI ([2]; SUM44PE cells, all drug combinations (OSI, BMS, BEZ), at the EC50) [fold]	viability of siCDH1 cells compared to siSCR cells in response to treatment ([6]; 2D growth condition)	viability of siCDH1 cells compared to siSCR cells in response to treatment ([6]; ULA growth condition)
	Cn1c(=O)n(-c2ccc(C(C)(C)C#N)cc2)c2c3cc(-c4cnc5ccccc5c4)ccc3ncc21 [BEZ235, 4-[2,3-dihydro-3-methyl-2-oxo-8-(3-quinolinyl)-1H-imidazo[4,5-c]quinolin-1-yl]-α,α-dimethyl-benzeneacetonitrile]	0.547 ± 0.13	2.885 ± 1.34	0.401 ± 0.12	0.425 ± 0.12										
	C[C@@]1(C(=O)Nc2ccc(F)nc2)CCCN1c1nc(Nc2cc(C3CC3)[nH]n2)c2cccn2n1 [BMS-754807, (2S)-1-[4-[(5-Cyclopropyl-1H-pyrazol-3-yl)amino]pyrrolo[2,1-f][1,2,4]triazin-2-yl]-N-(6-fluoro-3-pyridinyl)-2-methyl-2-Pyrrolidinecarboxamide]	0.230 ± 0.04	0.667 ± 0.15	0.081 ± 0.04	0.099 ± 0.04	11	22	no significant difference	decreased viability	0.081	0.099				
no statistical difference in EC50	C[C@]12CC[C@@H]3c4ccc(O)cc4C[C@@H](CCCCCCCCC[S+]([O-])CCCC(F)(F)C(F)(F)F)[C@H]3[C@@H]1CC[C@@H]2O (stereo partly drawn) [ICI 182,780, 7α,17β-[9-[(4,4,5,5,5-Pentafluoropentyl)sulfinyl]nonyl]estra-1,3,5(10)-triene-3,17-diol]											≥ 2	≥ 8		
	C[C@]1(O)C[C@@H](c2nc(-c3ccc4ccc(-c5ccccc5)nc4c3)c3c(N)nccn32)C1 [OSI-906, cis-3-[8-amino-1-(2-phenyl-7-quinolinyl)imidazo[1,5-a]pyrazin-3-yl]-1-methyl-cyclobutanol]	0.449 ± 0.18	0.808 ± 0.48	0.250 ± 0.10	0.398 ± 0.22			significantly decreased viability	significantly decreased viability					not in the 2D growth condition	significantly decreased viability
